Laboratory results reported in patent publication US20240336628A1, “NOVEL COMPOUNDS, COMPOSITIONS, AND THERAPEUTIC USES THEREOF” (Breakpoint Therapeutics GmbH, priority 2023, published 2024).

Biological target: T1, Polθ (truncated Polθ-Hel protein containing the helicase domain 67-894) (Homo sapiens, UniProt O75417)
T1 construct: a truncated Polθ protein (Polθ-Hel containing the helicase domain (67-894))
Test: Polθ ATPase assay (Biological Assay 1, ADP-Glo luminescence)
Assay type: biochemical
Conditions: Table B (Part B compounds); same assay as Biological Assay 1
Description: The Polθ ATPase assay was used to evaluate inhibitors of Polθ ATPase activity, in vitro. Experiments were performed using a truncated Polθ protein (Polθ-Hel containing the helicase domain (67-894), ATP and a DNA single strand Oligo (5′-CTGTCCTGCATGATG-3′) in the Polθ assay buffer (20 mM Tis-HCl (pH 8.8), MgCl2 5 mM, tween20 0.01%, NP40 0.01%, BSA 0.01%, DTT 1 mM). 2 μL of assay buffer containing Pole-Hel protein (0.5 nM) and DNA substrate (500 nM) was transferred into assay ready plates, containing 0.04 μL of compounds diluted in DMSO. After a 30 minutes incubation at 23° C. in the dark, the reaction was triggered by adding 2 μL of ATP (60 μM), in assay buffer. After 60 minutes at 23° C., 4 μl of ADP-Glo™ Reagent (Glo 1) was added followed by 40 minutes of incubation, then 8 μl of ADP-Glom kinase Detection Reagent (Glo 2) followed by 60 minutes of incubation at 23° C. Luminescence was then measured using Tecan F200 infinite plate reader. Raw data were analysed using GeneData to generate IC50 values.
The Polθ ATPase assay described in Biological Assay 1 above was used to evaluate inhibitors of Polθ ATPase activity for the compounds described in the Experimental Part B above, in vitro.

T1 sequence (O75417 67-894): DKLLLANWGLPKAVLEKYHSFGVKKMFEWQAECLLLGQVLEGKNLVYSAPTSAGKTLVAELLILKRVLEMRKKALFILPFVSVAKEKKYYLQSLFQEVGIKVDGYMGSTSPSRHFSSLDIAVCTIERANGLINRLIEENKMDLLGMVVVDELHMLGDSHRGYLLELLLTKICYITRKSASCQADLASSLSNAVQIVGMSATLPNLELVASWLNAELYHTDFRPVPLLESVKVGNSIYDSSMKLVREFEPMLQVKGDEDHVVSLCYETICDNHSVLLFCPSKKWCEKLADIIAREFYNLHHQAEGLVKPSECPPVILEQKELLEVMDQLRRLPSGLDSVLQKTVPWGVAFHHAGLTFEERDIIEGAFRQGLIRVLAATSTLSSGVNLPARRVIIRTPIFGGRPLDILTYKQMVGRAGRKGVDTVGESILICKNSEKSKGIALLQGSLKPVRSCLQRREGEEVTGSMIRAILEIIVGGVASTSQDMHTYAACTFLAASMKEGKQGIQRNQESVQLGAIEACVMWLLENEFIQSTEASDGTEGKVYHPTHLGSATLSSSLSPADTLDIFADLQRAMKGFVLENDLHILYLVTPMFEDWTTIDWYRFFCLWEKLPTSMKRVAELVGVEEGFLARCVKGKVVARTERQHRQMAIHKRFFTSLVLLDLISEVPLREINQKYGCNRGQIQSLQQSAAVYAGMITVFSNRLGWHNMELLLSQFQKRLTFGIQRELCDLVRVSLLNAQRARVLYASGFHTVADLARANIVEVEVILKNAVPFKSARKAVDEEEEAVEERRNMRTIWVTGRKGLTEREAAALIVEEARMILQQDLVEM

IC50: < 0.1 µM
SMILES: COc1cnc(Cl)cc1-c1cn(C)c(=O)cc1C(=O)Nc1nc2cnc(N3CCC(O)CC3)nc2s1 [Example 125]
